Entries after “also recorded” stand apart in the source; their conditions may differ.

One data set relates to Parkinson's disease. Kind of data set: clinical studies / series of tests on parkinsonian patients. Format: in vivo, human. The conditions noted are these: for antidepressant effect in parkinsonian patients: especially those treated in parallel with dopamine-containing medicaments; for necessary dose of dopamine to be taken: parkinsonian patients taking dopamine as supplement; for depot effect / release of the additionally taken dopamine in the patient's body: patients taking dopamine at the same time; for influence of additional intake on the effect of nefazodone or trazodone: taken in addition to nefazodone or trazodone. The procedure:
The tablets normally comprise the active substance in an amount of 100 mg or 200 mg. […] For example, if a total dose of 500 mg a day is intended, it is possible to take 200 mg in the morning, 200 mg at midday and 100 mg in the evening.
The medicament with the active substance trazodone was administered to the patients in the evening. […] However, to date, for the aforementioned reasons, the patients have been given the dopamine to be administered in the evening in conjunction with a depot composition.

The conditions of data set [1]: cited from earlier work; for side effects affecting the nervous system / psychomotor performance: manufacturer's information for use or statements in the literature.

As to `O=c1n(CCCN2CCN(c3cccc(Cl)c3)CC2)nc2ccccn12` [trazodone, 2-[3-[4-(3-chlorophenyl)-1-piperazinyl]propyl]-1,2,4-triazolo[4,3-a]pyridin-3(2H)-one], in the data set with Parkinson's disease, the “antidepressant effect in parkinsonian patients” value is given as “particularly evident”, the “necessary dose of dopamine to be taken” value is “reduction in the necessary dose of dopamine” and the “depot effect / release of the additionally taken dopamine in the patient's body” value was “causes a depot effect”. In addition, in the data set with Parkinson's disease (parkinsonian patients), the “therapeutic effect in the treatment of the symptoms of Parkinson's disease” value (“therapeutic effect in the treatment” below) was “exceptionally good therapeutic effect” and the “tiredness / sleep-promoting effect after intake” value is given as “causes a certain tiredness; also recorded: sleep-promoting effect”.
`O=C(O)COCCN1CCN(C(c2ccccc2)c2ccc(Cl)cc2)CC1` (centres unmarked) [cetirizine]: the central sedative effect entry in data set [1] (compared with other antihistamines, statements in the literature) is recorded as “only a slight central sedative effect”. For the same compound, the “side effects affecting the nervous system / psychomotor performance” value in data set [1] is reported as “reduction in psychomotor performance”. Moreover, in the data set with Parkinson's disease (parkinsonian patients), the “therapeutic effect in the treatment” value is “particularly good effect” and the “influence of additional intake on the effect of nefazodone or trazodone” value (“influence of additional intake” for short) was “enhances the effect of the nefazodone or trazodone”.
For the compound `CC(=O)Oc1ccccc1C(=O)O` [acetylsalicylic acid], in the data set with Parkinson's disease (parkinsonian patients), the “influence of additional intake” value is listed as “can also assist the mentioned positive effects of nefazodone”.
In the case of `CCc1nn(CCCN2CCN(c3cccc(Cl)c3)CC2)c(=O)n1CCOc1ccccc1` [nefazodone, 2-[3-[4-(3-chlorophenyl)-1-piperazinyl]propyl]-5-ethyl-4-(2-phenoxyethyl)-2H-1,2,4-triazol-3(4H)-one], the “side effects affecting the nervous system / psychomotor performance” value in data set [1] is “impairments of the coordination of movements (ataxia) and slowing of movements”. In the data set with Parkinson's disease, the “antidepressant effect in parkinsonian patients” value is reported as “particularly evident”, the “necessary dose of dopamine to be taken” value is “reduction in the necessary dose of dopamine” and the “depot effect / release of the additionally taken dopamine in the patient's body” value is given as “released more slowly”. Moreover, in the data set with Parkinson's disease (human, in vivo), the tolerability result was “generally well tolerated”. For the same compound, the “daily dopamine dose as fraction of dose before treatment” value in the data set with Parkinson's disease (one patient with disease in advanced stage) was “about one third”. Further, the “therapeutic effect in the treatment” value in the data set with Parkinson's disease (parkinsonian patients) is “exceptionally good therapeutic effect”. Besides, the “dopamine dose necessary on additional intake, relative to dose previously necessary on treatment with dopamine alone” value in the data set with Parkinson's disease (parkinsonian patients regularly taking L-dopamine, simultaneous intake of nefazodone) is “one half or even one third”. The “side effect of dopamine: uncontrolled motor activity in the patient” value with Parkinson's disease (patients on Parkinson's medicaments comprising dopamine) is given as “positively influenced”.
`Cn1c(=O)c2c(ncn2C)n(C)c1=O` [caffeine]: the “influence of additional intake” value with Parkinson's disease (parkinsonian patients) is listed as “assists the mentioned positive effect of nefazodone”.

Source of the values: patent publication US20050256131A1, “Pharmaceutical active substance combination and the use thereof” (priority 2002, published 2005).
